Results on 1 compound are retold here after US7253295B2, “Chloride channel opener” (Sucampo AG, priority 2001, dated 2007).

For experiment [1], the system named is CFBE41o- cells. Kind of experiment: Short-circuit current in CFBE41o- cells (Test Example 2). The class given is cell-based, Human. Conditions: 1 μM, 1% DMSO. The protocol: 16HBE14o- cells, a Human airway cell line derived from a healthy individual, which contain ClC-2 and the Cystic Fibrosis Transmembrane Regulator, Cl channel (CFTR); and CFBE41o- cells, a Human airway cell line derived from cystic fibrosis patients, which contain functional form of ClC-2 and defective form of CFTR (ΔF508 CFTR) were used. Both cells were cultured in MEM supplemented with 10% FBS (Hyclone), […] 1-glutamine and penicillin/streptomycin in flasks coated with fibronectin/collagen/BSA. When desired, the cells were plated on 0.3 cm^2 collagen-coated permeable filters (Biocoat). After 24 hrs, the apical medium was removed so that the cells were grown in air-water interface. While they were grown in air-water interface, the basolateral side of the cells was fed with the medium and the medium was changed every other day. The cells were allowed to grow to confluence.
Short-circuit current measurements were used to evaluate Cl transport in polarized, confluent cultures of the cells grown in air-water interface. A plexiglass chamber for short-circuit current measurements in confluent cell monolayers grown on the 0.3 cm^2 permeable support filters was used (World Precision Instruments, Sarasota, Fla.). Electrical measurements were made with a 7402C voltage clamp device (Bioengineering Department, Iowa University). […]

The subject of experiment [2] is T84 cells. Kind of experiment: Short-circuit current in T84 cells (Test Example 5). The conditions noted are these: 50 nM. It counts as cell-based, human. The protocol: T84 cells, a human intestinal cell line, derived form confluent monolayers with tight junctions were used. Said cell line has been widely used in studies of Cl^− transport using short-circuit current (Isc). These cells contain both CFTR and ClC-2.
T84 human intestinal epithelial cells were grown to confluence at pH 7.4 in 162-cm^2 flasks (Corning Costar, Mass.) with a 1:1 mixture of Dulbecco's modified Eagle's medium and Ham's F-12 nutrient mixture supplemented with 6% fetal bovine serum (FBS), 15 mM HEPES, 14.3 mM NaHCO^3, and antibiotics/antimycotic. Flasks were passaged weekly and fed every 3 days. Cell monolayers for experiments were grown to confluence on collagen-coated permeable support (Biocoat). Monolayers were fed every 3 days and used after stable transepithelia resistance was achieved, c.a. 7-14 days post-plating.
According to the same manner as described in Example 2, Short-circuit current measurements in T84 cells were carried out. Changes in short-circuit current (ΔIsc) were normalized to filter area (0.3 cm^2) and reported as ΔIsc/cm^2.
Compound 1 was used at a final concentration of 50 nM.

Experiment [3] relates to Chloride Ion Transport into Intestinal Fluid. Kind of experiment: Chloride ion transport into intestinal fluid of rats (Test Example 6). The class given is in vivo, male Wistar rats. Conditions: for Chloride Ion Concentration in Intestinal Fluid, Mean ± S.E.: 30 minutes after administration. The method, then: Compound 1 (13,14-dihydro-15-keto-16,16-difluoro-prostaglandin E1) of 1, 10 or 100 μg/kg in the volume of 5 mL/kg was orally administered to male Wistar rats (six weeks old, weight:180-210 g) that had been fasted for at least 16 hours. The control group received the same volume of vehicle (distilled water containing 0.5% ethanol and 0.01% polysorbate 80). Thirty minutes after the administration, the animals were subjected to laparotomy under ether anesthesia. The top portion of the duodenum and the end portion of the ileum were ligated respectively, and the bowel was extirpated. The intestinal fluid of each animal was collected and centrifuged by 10,000×g for 5 minutes. Supernatant was collected, and the concentration of chloride ion in the supernatant of intestinal fluid was measured with a chloride counter (CL-7, Hiranuma Sangyo Co., Ltd.). Dunnett's test was used in the comparison of the control group and the groups receiving Compound 1 in each dose. P values less than 0.05 were considered to be statistically significant.

The test system of experiment [4] is Chloride Ion Transport into Lacrimal Fluid. Kind of experiment: Chloride ion transport into lacrimal fluid in rabbits (Test Example 8). The class given is in vivo, male white rabbits. The method, then:
Physiological saline, eye drops vehicle, or eye drops containing 0.0001% or 0.001% of Compound 1 was instilled to male white rabbits in the volume of 30 μL/eye. […] The collected lacrimal fluid was diluted five fold with distilled water, and the concentration of chloride ions was measured with a chloride counter (CL-7, Hiranuma Sangyo Co. Ltd.). Student's t-test and Wilcoxon's test were used in the comparison of the control group and the groups receiving Compound 1 in each dose. P values less than 0.05 were considered to be statistically significant.

Molecules are shown by their SMILES. “And” between values parts separate entries of the source, which are not always exact repeats. Identical values can stand only once.

Take `CCCCC(F)(F)[C@@]1(O)CC[C@H]2[C@@H](CC(=O)[C@@H]2CCCCCCC(=O)O)O1` [Compound 1, (−)-7-[(2R,4aR,5R,7aR)-2-(1,1-difluoropentyl)-2-hydroxy-6-oxoperhydrocyclopenta[b]pyran-5-yl]heptanoic acid]: the “Short-Circuit Current (change)” value in experiment [1] was 5.0±0.04 μA/cm^2 and 5.0 ± 0.4 μA/cm^2. Also, the “Effect on Cl− transport in T84 cells (in words)” value in experiment [2] is reported as “activated Cl^− transport”. For the same compound, the “Changes in short-circuit currents (Δlsc)” value in experiment [2] (T84 cells) came to 56.5 μA/cm^2. Moreover, the “Chloride Ion Concentration in Intestinal Fluid, Mean ± S.E.” value came to 82.2 ± 7.0 mEq/L in experiment [3] (1 μg/kg P.O.), 110.1 ± 5.6 mEq/L in experiment [3] (10 μg/kg P.O.) and 126.6 ± 2.4 mEq/L in experiment [3] (100 μg/kg P.O.). The “Effect on concentration of chloride ions in the bowel (in words)” value in experiment [3] (1, 10 and 100 μg/kg P.O.) is “increased the concentration of chloride ions in the bowel in a dose-dependant manner”. The “Effect on concentration of chloride ions in the lacrimal fluid (in words)” value in experiment [4] (0.0001% and 0.001% eye drops, compared with control group) is “increased the concentration of chloride ions in the lacrimal fluid in a dose-dependant manner”. Besides, the “Chloride Ion Concentration in lacrimal fluid, Mean ± S.E.” value in experiment [4] (0.0001% eye drops, 30 μL/eye, Pre (0 hour)) is reported as 136.7 ± 3.6 mEq/L; in experiment [4] (0.0001% eye drops, 2 hr after instillation) it was 123.4 ± 5.2 mEq/L; in experiment [4] (0.0001% eye drops, 4 hr after instillation) it was 136.8 ± 2.3 mEq/L; in experiment [4] (0.0001% eye drops, 6 hr after instillation), 136.8 ± 2.0 mEq/L; in experiment [4] (0.0001% eye drops, 8 hr after instillation) it was 140.8 ± 2.8 mEq/L; in experiment [4] (0.001% eye drops, 30 μL/eye, Pre (0 hour)) it was 135.4 ± 4.0 mEq/L. The “Chloride Ion Concentration in lacrimal fluid, Mean ± S.E.” value in experiment [4] (0.001% eye drops, 2 hr after instillation) was 152.9 ± 7.7^[##] mEq/L; in experiment [4] (0.001% eye drops, 4 hr after instillation), 151.4 ± 2.9 mEq/L; in experiment [4] (0.001% eye drops, 6 hr after instillation), 138.9 ± 3.3 mEq/L; in experiment [4] (0.001% eye drops, 8 hr after instillation), 138.8 ± 1.6 mEq/L.
